Consider seven molecules from publication PMC3903666 (Analytical biochemistry, 2012).

By Kd is commonly meant the concentration at which binding is half-saturated. Usually IC50 stands for the concentration that gives 50% inhibition. The low end stands for inhibition by little substance, the high end for a need for much substance.

The target of assay [1] is T1, Af SidA (Aspergillus fumigatus, UniProt E9QYP0). Description: Fluorescence polarization binding assay, Af SidA. (In general: Polarisation of emitted light reports the rotation of a fluorescent probe.)
In assay [2] the target is KMO (kynurenine 3-monooxygenase) (Pseudomonas fluorescens, UniProt Q84HF5). Description: Fluorescence polarization binding assay, KMO.
Assay [3] addresses T1, Af SidA. Nature of the assay: Fluorescence polarization displacement assay, Af SidA. Format: binding.
In assay [4] the target is T1, Af SidA. Description: Ornithine hydroxylation activity assay and inhibition of Af SidA. It is filed as biochemical.
Assay [5] concerns the target T1, Af SidA. Nature of the assay: Fluorescence polarization displacement assay in high throughput screening. It is filed as binding. To be noted: 10 μM compound, 2 μM Af SidA, 30 nM chromophore 4, 2% DMSO.

The structures appear in SMILES notation. Where a name gives a salt, the structure may show the parent alone.

T1 sequence (E9QYP0 whole entry): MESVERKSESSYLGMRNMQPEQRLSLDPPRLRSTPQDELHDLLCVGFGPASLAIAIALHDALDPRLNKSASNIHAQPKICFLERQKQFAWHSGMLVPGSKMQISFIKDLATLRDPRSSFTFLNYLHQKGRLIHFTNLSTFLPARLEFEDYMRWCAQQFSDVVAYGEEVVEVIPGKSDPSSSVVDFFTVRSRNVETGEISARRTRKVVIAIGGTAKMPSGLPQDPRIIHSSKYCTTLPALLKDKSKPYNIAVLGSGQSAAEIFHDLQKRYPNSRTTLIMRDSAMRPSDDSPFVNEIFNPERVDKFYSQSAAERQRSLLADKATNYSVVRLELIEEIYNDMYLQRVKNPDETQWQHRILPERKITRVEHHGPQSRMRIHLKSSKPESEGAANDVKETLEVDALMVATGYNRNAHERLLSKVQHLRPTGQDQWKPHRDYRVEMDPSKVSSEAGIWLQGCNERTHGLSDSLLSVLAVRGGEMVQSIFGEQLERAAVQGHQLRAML
Chain of KMO (kynurenine 3-monooxygenase) (Q84HF5 whole entry): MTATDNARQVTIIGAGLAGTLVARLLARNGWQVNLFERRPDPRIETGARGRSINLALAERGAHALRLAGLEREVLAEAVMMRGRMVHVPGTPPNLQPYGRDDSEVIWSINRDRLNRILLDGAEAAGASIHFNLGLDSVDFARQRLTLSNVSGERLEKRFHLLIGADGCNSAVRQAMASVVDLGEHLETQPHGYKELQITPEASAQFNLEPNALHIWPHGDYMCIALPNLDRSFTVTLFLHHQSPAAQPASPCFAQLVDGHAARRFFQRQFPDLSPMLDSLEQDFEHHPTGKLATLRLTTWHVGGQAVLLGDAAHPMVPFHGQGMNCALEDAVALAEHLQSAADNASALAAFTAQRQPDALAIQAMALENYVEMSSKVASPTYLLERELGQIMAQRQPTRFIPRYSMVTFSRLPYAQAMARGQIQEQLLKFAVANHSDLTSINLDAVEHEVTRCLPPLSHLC

`CN(C)c1ccc2c(c1)Oc1cc(N(C)C)ccc1C21OC(=O)c2ccc(C(=O)NCCCCCC(=O)NCCCCCCOP(=O)(O)OP(=O)(O)OCC3OC(n4cnc5c(N)ncnc54)C(O)C3O)cc21` (centres unmarked) [Chromophore 3]: the figures for the Kd (on Af SidA [1]; in assay [2]) were 9 ± 5 µM and 10 ± 2 µM, respectively. On to `CN(C)c1ccc2c(c1)Oc1cc(N(C)C)ccc1C21OC(=O)c2cc(C(=O)NCCCCCC(=O)NCCCCCCOP(=O)(O)OP(=O)(O)OCC3OC(n4cnc5c(N)ncnc54)C(O)C3O)ccc21` (centres unmarked) [Chromophore 4], for which the Kd on Af SidA [1] came out at 2.1 ± 0.2 µM; in assay [2], 0.6 ± 0.05 µM. For the molecule `NCCCC[C@H](N)C(=O)O` [Lysine, lysine], the Kd on Af SidA [3] amounted to 11000 ± 1000 µM.

`NCCC[C@H](N)C(=O)O` [Ornithine, ornithine] registered a Kd on Af SidA [3] of 4000 ± 1000 µM. For `C[n+]1cc2c3c(ccc2c2ccc4cc5c(cc4c21)OCO5)OCO3` [Sanguinarine, sanguinarine sulfate], half-maximal inhibition on Af SidA [4] (IC50) was put at 500 ± 90 µM. On Af SidA [4] (in the presence of NADPH and ornithine, inhibitor up to 1000 μM), the “inhibition of Af SidA activity observed” value stood at 100%. Besides, the “decrease of the anisotropy value in the screen” value at Af SidA [5] stood at 20%. Consider `COc1ccc2cc3[n+](cc2c1OC)CCc1cc2c(cc1-3)OCO2` [berberine], for which, on Af SidA [3] (addition of up to 1 mM compound, Figure 9S), the “decrease in anisotropy (specificity of binding to Af SidA)” value is given as “did not produce a decrease in anisotropy similar to sanguinarine”. Take `COc1ccc2cc([C@H](C)C(=O)O)ccc2c1` [naproxen]: the “binding to Af SidA” value on Af SidA [3] (negative hit, Figure 9S) is reported as “did not bind”.
